The results in this text go back to US5629321A, “Bicyclic compound and platelet aggregation inhibitor containing the same” (Mitsui Toatsu Chemicals, Inc., priority 1994, dated 1997).

Assay [1] has as its system platelet aggregation. Nature of the assay: Inhibition of platelet aggregation in Guinea pig (ADP-induced, platelet-rich plasma). As to conditions: Cavia porcellus, guinea pig PRP, ADP final concentration 5 μM, 37° C. In kind it is cell-based, male guinea pig. The procedure: 1. Inhibition of platelet aggregation in Guinea pig
Blood of male guinea pig was collected with an injection syringe which contains 3.8% sodium citrate as an anticoagulant in a ratio of 1 volume to 9 volumes of the blood. Successively, the collected blood mixture was subjected to centrifugation at 120×g for 15 minutes at room temperature to obtain platelet-rich plasma (PRP). The residual blood after separating PRP was further subjected to centrifugation at 1,200×g for 15 minutes to obtain platelet-poor plasma (PPP). Numbers of the platelet in PRP were measured with an automatic platelet counter: Sysmex PL-100 (manufactured by Toa Iyodensi Co.) and PRP was diluted with PPP so as to adjust a platelet concentration to be about 300,000 particles/μ 1. Platelet aggregation was measured by the following procedure with a 6 channel aggregometer: HEMA TRACER 1 (manufactured by NKK Co.).
After warming 240 μl of PRP at 37° C. for 2 minutes, 30 μl of the solvent of specimen as a control or of the specimen having various concentrations was added to PRP. Further 2 minutes later, 30 μl of adenosine diphosphate (final concentration: 5 μM) was added to induce platelet aggregation. An inhibition percentage was obtained by comparing the maximum aggregation rate of the specimen drug group with that of control. […]

Assay [2] deals with platelet aggregation. Description: Inhibition of platelet aggregation in human (ADP-induced, platelet-rich plasma). The class given is cell-based. As to conditions: human PRP, ADP final concentration 5 μM, 37° C. The procedure:
2. Inhibition of platelet aggregation in human
Blood was collected from healthy human volunteers with an injection syringe and mixed one volume of 3.8% sodium citrate as an anticoagulant to 9 volumes of the blood. Successively, the obtained blood mixture was subjected to centrifugation at 120×g for 15 minutes at room temperature to obtain platelet-rich plasma (PRP). The residual blood after separating the PRP was further subjected to centrifugation at 1,200×g for 20 minutes to obtain platelet-poor plasma (PPP). Numbers of the platelet were measured with an automatic platelet counter: Sysmex PL-100 (manufactured by Toa Iyodensi Co.) and PRP was diluted with PPP so as to adjust a platelet concentration to be about 250,000 particles/μl. Platelet aggregation was measured by the following procedure with a 6 channel aggregometer: HEMA TRACER 1 (manufactured by NKK Co.)
After warming 240 μl of PRP at 37° C. for 2 minutes, 30 μl of the solvent of specimen as a control or the specimen having various concentrations was added to PRP. Further 2 minutes later, 30 μl of adenosine diphosphate (final concentration: 5 μM) was added to induce platelet aggregation. An inhibition percentage was obtained by comparing the maximum aggregation rate of the specimen drug group with that of control. […]

Molecules are shown by their SMILES. Counter-ions that a name gives are not always drawn.

In general, IC50 refers to the midpoint of a concentration-inhibition curve. Lower therefore signals greater potency in that assay. Regarding `N=C(N)c1ccc(C(=O)Nc2ccc3c(c2)C(=O)N(CC(=O)O)CC3)cc1` [Comparative compound, 7-[(4-amidinobenzoyl)amino]-l-oxo-3,4-dihydroisoquinolone-2-acetic acid hydrochloride, reference compound], the 50% inhibitory concentration (IC50) in assay [1] was above 100 µM; in assay [2], 3.9 µM.
For `N=C(N)c1ccc(C(=O)Nc2ccc3c(c2)CC(CC(=O)O)CC3)cc1` (stereo not shown) [Compound No. 1, 7-[(4-amidinobenzoyl)amino]-1,2,3,4-tetrahydronaphthalene-2-acetic acid] the same measures were 0.37 µM and 0.057 µM.
In assay [1], `CCOC(=O)CC1CCc2ccc(NC(=O)c3ccc(C(=N)N)cc3)cc2C1` (stereo not shown) [Compound No. 3, ethyl 7-[(4-amidinobenzoyl)amino]-1,2,3,4-tetrahydronaphthalene-2-acetate] came in with an IC50 of 0.4 µM.
Turning to `N=C(N)c1ccc(NC(=O)c2ccc3c(c2)CC(CC(=O)O)CC3)cc1` (stereo not shown) [Compound No. 9, 7-[N-(4-amidinophenyl)carbamoyl]-1,2,3,4-tetrahydronaphthalene-2-acetic acid], the concentration for half-maximal inhibition (IC50) in assay [1] was found to be 0.23 µM; in assay [2], 0.046 µM.
In assay [1], `CCOC(=O)CC1CCc2ccc(C(=O)Nc3ccc(C(=N)N)cc3)cc2C1` (stereo not shown) [Compound No. 11, ethyl 7-[N-(4-amidinophenyl)carbamoyl]-1,2,3,4-tetrahydronaphthalene-2-acetate] showed an IC50 of 0.34 µM.
Take `N=C(N)c1ccc(C(=O)Nc2ccc3c(c2)CC(CC(=O)O)CO3)cc1` (stereo not shown) [Compound No. 17, 6-[(4-amidinobenzoyl)amino]chroman-3-acetic acid]: in assay [2], the IC50 came to 0.049 µM.
In the case of `N=C(N)c1ccc(C(=O)Nc2ccc3c(c2)CN(CC(=O)O)CC3)cc1` [Compound No. 28, 7-[(4-amidinobenzoyl)amino]-1,2,3,4-tetrahydroisoquinoline-2-acetic acid], the results for the half-inhibitory concentration (IC50) in assay [1] and in assay [2] were 6.6 µM and 0.293 µM, respectively.
Take `CN(C(=O)c1ccc(C(=N)N)cc1)c1ccc2c(c1)CC(CC(=O)O)CC2` (stereo not shown) [Compound No. 47, 7-[N-(4-amidinobenzoyl)-N-methylamino]-1,2,3,4-tetrahydronaphthalene-2-acetic acid]: the IC50 in assay [1] stood at 1.77 µM; in assay [2], 0.194 µM.
For `CN(C(=O)c1ccc2c(c1)CC(CC(=O)O)CC2)c1ccc(C(=N)N)cc1` (stereo not shown) [Compound No. 56, 7-[N-(4-amidinophenyl)-N-methylcarbamoyl]-1,2,3,4-tetrahydronaphthalene-2-acetic acid] the same measures were 0.34 µM and 0.115 µM.
`N=C(N)c1ccc(COc2ccc3c(c2)CC(CC(=O)O)CC3)cc1` (stereo not shown) [Compound No. 80, 7-[(4-amidinobenzyl)oxy]-1,2,3,4-tetrahydronaphthalene-2-acetic acid] returned a 50% inhibitory concentration (IC50) in assay [2] of 1.5 µM.
In assay [1], `COC(=O)CC1CCc2ccc(OCc3ccc(C(=N)N)cc3)cc2C1` (stereo not shown) [Compound No. 81, methyl 7-[(4-amidinobenzyl)oxy]-1,2,3,4-tetrahydronaphthalene-2-acetate] yielded an IC50 of 22 µM.
On the same count and under the same terms, then `N=C(N)c1ccc(OCc2ccc3c(c2)CC(CC(=O)O)CC3)cc1` (stereo not shown) [Compound No. 82, 7-[(4-amidinophenoxy)methyl]-1,2,3,4-tetrahydronaphthalene-2-acetic acid], with 39 µM; and `N=C(N)c1ccc(CNc2ccc3c(c2)CC(CC(=O)O)CC3)cc1` (stereo not shown) [Compound No. 84, 7-[(4-amidinobenzyl)amino]-1,2,3,4-tetrahydronaphthalene-2-acetic acid], with 24 µM; and `N=C(N)c1ccc(COc2ccc3c(c2)CC(CC(=O)O)CO3)cc1` (stereo not shown) [Compound No. 89, 6-[(4-amidinobenzyl)oxy]chroman-3-acetic acid], with 12 µM.
On the same count and under the same terms, the value for `CCOC(=O)CC1COc2ccc(OCc3ccc(C(=N)N)cc3)cc2C1` (stereo not shown) [Compound No. 90, ethyl 6-[(4-amidinobenzyl)oxy]chroman-3-acetate] was 17 µM.
In turn, `N=C(N)c1ccc(COc2ccc3c(c2)C=C(CC(=O)O)CC3)cc1` [Compound No. 91, 7-[(4-amidinobenzyl)oxy]-3,4-dihydronaphthalene-2-acetic acid] gave an IC50 in assay [1] of 41 µM.
On the same count and under the same terms, the value for `N=C(N)Nc1ccc(C(=O)Nc2ccc3c(c2)CC(CC(=O)O)CC3)cc1` (stereo not shown) [Compound No. 93, 7-[(4-guanidinobenzoyl)amino]-1,2,3,4-tetrahydronaphthalene-2-acetic acid] was 27 µM.
`NCc1ccc(C(=O)Nc2ccc3c(c2)CC(CC(=O)O)CC3)cc1` (stereo not shown) [Compound No. 123, 7-[(4-aminomethylbenzoyl)amino]-1,2,3,4-tetrahydronaphthalene-2-acetic acid]: the IC50 in assay [1] amounted to 14 µM.
The compound `CCOC(=O)CN1CCc2ccc(C(=O)Nc3ccc(C(=N)N)cc3)cc2C1` [compound 37, ethyl 7-[N-(4-amidinophenyl)carbamoyl]-1,2,3,4-tetrahydroisoquinoline-2-acetate] showed an IC50 in assay [1] of 4.3 µM.
